This is an account of results in patent US10104882B2, “Methods and compositions for preventing and treating electrophile-mediated toxicities” (priority 2013, dated 2018).

The nature of series [1]: Electrophile concentration-dependent loss of GSH sulfhydryl groups (in chemico). It is filed as biochemical. On the set-up: Log IC50: unit not given here. Conditions: logarithmic value; electrophile concentration that causes 50% loss of the GSH sulfhydryl group. An excerpt: (§1) However, acrolein and other electrophiles used in this research are α,β-unsaturated carbonyls, whereas NAPQI and pBQ are quinone derivatives. […] Although both compounds are relatively acidic (low pKa values), thiol protection is limited since the corresponding adduct reactions involving the enolates of these acids are likely to be reversible. […] 2-ACP was the most protective 1,3-dicarbonyl compound tested in this and other studies^54 and was, therefore, the focus of subsequent research. […] 2-ACP (50 μM) was also effective at protecting thiol loss induced by pBQ, the degradation product of NAPQI (data not shown). […] These electrophiles target nucleophilic sulfhydryl groups that play critical roles in protein function and cellular redox balance.

Series [2] relates to MN9D cells. To be noted: cited from earlier work; for protection from acrolein-induced cell loss: pre-incubation.
The next series concerns male C57 BL mice. Kind of series: Mouse model of oral acetaminophen (APAP) overdose hepatotoxicity/lethality. It is filed as in vivo. Conditions: oral 500 mg/kg, mice, within 72 hrs. The procedure:
FIG. 7A-7B. […] Hepatoprotectants were administered 20 mins before (−20), 20 mins after (+20) or 60 mins after (+60) APAP intoxication.
A separate group received the PEG400 vehicle 20 mins prior to AAP. […] Vehicle control mice (n=10) received sequential injections of PEG400 (i.p. followed by oral). At several times post-AAP administration (2, 6, 24, 48 and 168 hrs), groups of mice were anesthetized in a carbon dioxide chamber and heparinized blood samples were collected. Samples were centrifuged and resulting serum was retained for analyses (see below). Livers were also excised, weighed and tissue samples were collected for histopathological evaluation. Remaining tissue was snap frozen in liquid nitrogen. Hepatotoxicity was determined by quantification of serum alanine aminotransferase (ALT) and aspartate aminotransferase (AST) using colorimetric assays. Serum lactate dehydrogenase (LDH) was also measured as an index of generalized AAP-induced organ toxicity. To evaluate the extent of cellular oxidative stress in liver homogenates, the unsaturated aldehyde by-products of lipid peroxidation, HNE and malondialdhyde (MDA), were determined according to a modification of the Gerard-Monnier et al. method^27. In addition, soluble thiol contents were measured in homogenates according to LoPachin et al.^44.

Series [3] can be described thus: Prevention of NAPQI-induced GSH sulfhydryl loss by 1,3-dicarbonyl compounds (in chemico). Conditions: equimolar concentrations (50 μM), pH 7.4. The format is biochemical.
Excerpt: FIG. 3. […] Numbers in parentheses are respective IC50 values.
FIG. 4. […] Numbers in parentheses are respective IC50 values.
as §1

The test system of series [4] is MN9D cells. To be noted: cited from earlier work.
Series [5] relates to Rat striatal synaptosomes. Conditions: acrolein 1-1000 μM with cytoprotectant 500 μM; cited from earlier work.
Series [6] can be described thus: Ionization parameters (pKa, % anion). It is filed as physicochemical. To be noted: for relative enolate concentration in solution: pH 7 / neutral conditions.
For series [7] the following is noted: cited from earlier work; for effect on rate of acrolein-induced sulfhydryl (thiol) loss: physiological conditions (pH 7.4); for thiol protection against acrolein-induced thiol loss: pH 9.0.

Like-named read-outs stand apart in the source and are kept apart here.

Turning to `C=CC=O` [Acrolein, acrolein], the “Log IC50” value in series [1] is given as 1.72. The CC50 in the series on MN9D cells [2] (read-out: LC50 (acrolein concentration producing 50% cell lethality), acrolein 50-150 μM) was 96 µM.

On to `CC(=O)Nc1ccc(O)cc1` [APAP, N-acetyl-p-aminophenol], for which, in the series on male C57 BL mice, the “lethality of oral APAP overdose” value is on record as around 90%.

As to `O=C1CCC(=O)C1` [CPD, 1,3-cyclopenanedione], in series [3], the “prevention of NAPQI-induced thiol loss” value is given as “minimal thiol protection”. Moreover, in the series on MN9D cells [4], the “protection against H2O2-induced cell death” value is “ineffective”. The “change in acrolein IC50 for synaptosomal DA transport inhibition” value in series [5] is given as “relatively ineffective”.

As for `N[C@@H](CCC(=O)N[C@@H](CS)C(=O)NCC(=O)O)C(=O)O` [GSH, glutathione], in series [6] (Table 1, read-out: pKa), the pKa was determined as 8.6. In series [6], the “% Anion (pH = 7.4)” value is reported as 5.9%.

Regarding `CC1(C)CC(=O)CC(=O)C1` [DMD, dimedone], the “effect on rate of acrolein-induced sulfhydryl (thiol) loss” value (from here on “effect on rate … (thiol) loss”) in series [7] is listed as “substantially slowed”. In series [6], the pKa amounted to 5.3. Also, in series [6] (physiological pH (7.4)), the “fraction present as nucleophilic enolate/thiolate anion” value stood at 99%. Moreover, the “prevention of NAPQI-induced thiol loss” value in series [3] is reported as “ineffective”. In addition, the “change in acrolein IC50 for synaptosomal DA transport inhibition” value in series [5] was “more modest”.

As to `CC(=O)CCC(C)=O` [HD, 2,5-hexanedione], the “effect on rate … (thiol) loss” value in series [7] is recorded as “Neither diethyl malonate (DEM; a β-diester) nor 2,5-hexanedione (HD), a γ or 1,4-diketone, affected the rate of sulfhydryl loss”. Besides, the “protection against H2O2-induced cell death” value in the series on MN9D cells [4] is reported as “ineffective”. Further, the “change in acrolein IC50 for synaptosomal DA transport inhibition” value in series [5] is on record as “neither DEM nor HD significantly affected the acrolein IC50”. Further, the “protection from acrolein-induced cell loss” value in the series on MN9D cells [2] was “neither DEM nor HD was effective”.

For the molecule `CC1(C)OC(=O)CC(=O)O1` [MA, Meldrum's acid], in series [7], the “effect on rate … (thiol) loss” value is reported as “substantially slowed”. Besides, in series [3], the “prevention of NAPQI-induced thiol loss” value was “ineffective”. Besides, the “change in acrolein IC50 for synaptosomal DA transport inhibition” value in series [5] was “more modest”.

Consider `COc1cc(/C=C/C(=O)CC(=O)/C=C/c2ccc(O)c(OC)c2)ccc1O` [Curcumin, curcumin], for which, in series [6] (Table 1, read-out: pKa), the pKa worked out at 7.8. In addition, the “% Anion (pH = 7.4)” value in series [6] is listed as 28.5%.

As to `CC(C)(C)C1=CC(=O)C=CC1=O` [tBQ, tert-butylquinone], the “Log IC50” value in series [1] is recorded as 1.24.

For the molecule `CC(=O)CC(=O)C(F)(F)F` [TFPD, 1,1,1-trifluoro-2,4-pentanedione], in series [7], the “thiol protection against acrolein-induced thiol loss” value was “did not increase” and the “effect on rate … (thiol) loss” value was “some thiol protection”. In addition, in series [6], the “relative enolate concentration in solution” value came out at 99%. Also, the pKa in series [6] (read-out: pKa) was found to be 4.7. Besides, the “fold protection against H2O2-induced cytotoxicity” value in the series with MN9D cells [4] is 3 fold. In addition, the “change in acrolein IC50 for synaptosomal DA transport inhibition” value in series [5] is reported as “relatively ineffective”. The “protection from acrolein-induced cell loss” value in the series with MN9D cells [2] was “moderately protective”.

As for `CC(=O)CC(C)=O` [AcAc, acetylacetone], in series [7], the “thiol protection against acrolein-induced thiol loss” value is “virtually complete” and the “effect on rate … (thiol) loss” value is “substantially slowed”. The pKa in series [6] is 9.0. The “prevention of NAPQI-induced thiol loss” value in series [3] was “minimal thiol protection”. In addition, the “protection from acrolein-induced cell loss” value with MN9D cells [2] is “moderately protective”.

Take `CCOC(=O)CC(=O)OCC` [DEM, diethyl malonate]: in series [7], the “thiol protection against acrolein-induced thiol loss” value is on record as “significantly increased” and the “effect on rate … (thiol) loss” value is “Neither diethyl malonate (DEM; a β-diester) nor 2,5-hexanedione (HD), a γ or 1,4-diketone, affected the rate of sulfhydryl loss”. Moreover, the “relative enolate concentration in solution” value in series [6] is listed as below 0.1%. Moreover, the “change in acrolein IC50 for synaptosomal DA transport inhibition” value in series [5] is given as “neither DEM nor HD significantly affected the acrolein IC50”. The “protection from acrolein-induced cell loss” value in the series with MN9D cells [2] was “neither DEM nor HD was effective”.

With `O=C1C=CC(=O)C=C1` [pBQ, p-benzoquinone], the “Log IC50” value in series [1] was 1.06.

Regarding `CCN1C(=O)C=CC1=O` [NEM, N-ethylmaleimide], in series [1], the “Log IC50” value worked out at 1.23.
